Experimental data from the supplement of paper PMC10307832.

Columns and labels:
Test in all cases: relative viability (nuclei count vs DMSO), 5 days (fraction); higher = more cells survive
Trametinib + OSI-027 = compound: CC(=O)Nc1cccc(-n2c(=O)n(C3CC3)c(=O)c3c(Nc4ccc(I)cc4F)n(C)c(=O)c(C)c32)c1 [Trametinib] + COc1cccc2cc(-c3nc([C@H]4CC[C@H](C(=O)O)CC4)n4ncnc(N)c34)[nH]c12 [OSI-027] (partner 0.5 µM)
Outline: (§1)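 A single step with final 0.05% Triton X-100, 1% formaldehyde and 1 ug/ml Hoechst fixed the cells and stained nuclei 5 days after treatment. Lung cancer cell lines in 1536-well plates had been treated by pin tool the day after seeding with one drug alone or a fixed anchor-drug dose plus five library-drug doses (not always all listed) in √10 steps, and nuclei were counted on 4× images. Relative viability is the ratio of nuclei in treated wells to nuclei in vehicle wells, taken as the median of duplicate plates.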

Trametinib + AZD7762 = compound: CC(=O)Nc1cccc(-n2c(=O)n(C3CC3)c(=O)c3c(Nc4ccc(I)cc4F)n(C)c(=O)c(C)c32)c1 [Trametinib] + NC(=O)Nc1cc(-c2cccc(F)c2)sc1C(=O)N[C@H]1CCCNC1 [AZD7762] (partner 0.2 µM)
Outline: as §1

[1] = compound: CN1C=C(C2=CC=CC=C21)/C=C\3/C4=C(C=CC=N4)NC3=O + Cc1nc(Nc2ncc(C(=O)Nc3c(C)cccc3Cl)s2)cc(N2CCN(CCO)CC2)n1 [Dasatinib] (partner 0.075 µM)
Outline: as §1

[2] = compound: CN1C=C(C2=CC=CC=C21)/C=C\3/C4=C(C=CC=N4)NC3=O + NC(=O)Nc1cc(-c2cccc(F)c2)sc1C(=O)N[C@H]1CCCNC1 [AZD7762] (partner 0.2 µM)
Outline: as §1

Cell Line	relative viability (Trametinib + OSI-027; first compound 0.0025 µM)	relative viability (Trametinib + OSI-027; first compound 0.007906 µM)	relative viability (Trametinib + OSI-027; first compound 0.025 µM)	relative viability (Trametinib + OSI-027; first compound 0.07906 µM)	relative viability (Trametinib + OSI-027; first compound 0.25 µM)	relative viability (Trametinib + AZD7762; first compound 0.0025 µM)	relative viability (Trametinib + AZD7762; first compound 0.007906 µM)	relative viability (Trametinib + AZD7762; first compound 0.025 µM)	relative viability (Trametinib + AZD7762; first compound 0.07906 µM)	relative viability (Trametinib + AZD7762; first compound 0.25 µM)	relative viability ([1]; first compound 0.02 µM)	relative viability ([1]; first compound 0.06325 µM)	relative viability ([1]; first compound 0.2 µM)	relative viability ([1]; first compound 0.6325 µM)	relative viability ([1]; first compound 2 µM)	relative viability ([2]; first compound 0.02 µM)	relative viability ([2]; first compound 0.06325 µM)	relative viability ([2]; first compound 0.2 µM)	relative viability ([2]; first compound 0.6325 µM)	relative viability ([2]; first compound 2 µM)
HCC-366	0.684	0.763	0.371	0.414	0.201	0.24	0.24	0.323	0.167	0.143	0.641	0.455	0.44	0.593	0.468	0.29	0.278	0.0805	0.178	0.24
ChaGo-K-1	0.558	0.488	0.51	0.423	0.403	0.909	0.859	0.793	0.781	0.807	0.477	0.544	0.418	0.587	0.576	0.703	0.868	0.723	0.848	0.877
LCLC-97TM1	0.346	0.379	0.268	0.272	0.271	0.352	0.306	0.137	0.161	0.123	0.529	0.76	0.876	0.968	0.882	0.177	0.188	0.0774	0.168	0.284
EMC-BAC-2	0.452	0.488	0.381	0.511	0.359	1.19	1.14	0.994	0.932	0.757	0.356	0.323	0.32	0.332	0.407	0.963	0.963	0.91	1.03	1
NCI-H441	0.543	0.56	0.392	0.446	0.196	1.15	0.972	0.734	0.658	0.618	0.541	0.638	0.548	0.538	0.677	1.15	1.21	1.19	1.06	1.05
LCLC-103H	0.463	0.44	0.379	0.334	0.421	0.835	0.69	0.611	0.758	0.644	0.516	0.355	0.481	0.417	0.478	0.864	0.758	0.73	0.741	0.786
HOP-62	0.879	0.873	0.493	0.219	0.188	0.737	0.461	0.251	0.243	0.211	0.683	0.709	0.592	0.599	0.648	0.569	0.559		0.919	0.774
NCI-H1793	0.245	0.236	0.204	0.199	0.199	0.44	0.466	0.252	0.335	0.264	0.429	0.341	0.337	0.353	0.381	0.431	0.595	0.316	0.387	0.443
NCI-H1355	0.344	0.327	0.241	0.263	0.242	0.747	0.706	0.539	0.599	0.591	0.671	0.586	0.571	0.399	0.502	0.715	0.708	0.637	0.606	0.642
A-427	0.373	0.287	0.212	0.242	0.143	0.662	0.573	0.525	0.373	0.371	0.696	0.664		0.644	0.86	0.782	0.753		0.729	0.802
LXF-289	0.766	0.656	0.452	0.453	0.243	0.994	0.906	0.818	0.71	0.534	0.203	0.197	0.184	0.2	0.202	1.14	1.16	0.975	1.21	1.1
NCI-H2087	0.323	0.275	0.139	0.137	0.101	1.26	1.38	0.633	0.313	0.324	0.868	0.843	0.838	0.824	0.877	1.41	1.33	1.31	1.22	1.37
CAL-12T	0.543	0.333	0.224	0.353	0.193	0.642	0.61	0.619	0.536	0.483	0.501	0.302	0.347	0.285	0.273	0.586	0.612	0.623	0.643	0.612
NCI-H596	0.531	0.62	0.407	0.487	0.249	0.942	1.05	0.921	0.756	0.653	0.481	0.582	0.469	0.628	0.48	1	1.04	0.92	1	1.21
PC-14	0.843	0.72	0.427	0.411	0.155	0.354	0.274	0.224	0.193	0.203	0.227	0.223	0.194	0.205	0.186	0.254	0.307	0.19	0.306	0.264
NCI-H1915	0.538	0.314	0.293	0.21	0.159	0.702	0.715	0.405	0.365	0.218	0.331	0.295	0.274	0.338	0.31	0.678	0.646	0.529	0.751	0.699
